Patent publication WO2010003376A1, “Methods for treatment and/or prevention of cancer with andrographolide (and) and use thereof” (Chinese University of Hong Kong CUHK, priority 2008, dated 2010)
Read-outs that look alike come from different tables or passages of the source.

What was measured:
rat liver (DEN & CCl4) = assay: Hematoxylin & Eosin staining of rat liver sections; assay type: in vivo; conditions: 10 mg/kg orally
PCNA = assay: Western blot of PCNA in rat liver; assay type: in vivo; conditions: 10 mg/kg orally; for PCNA expression (PCNA : β-actin ratio): vs positive control
p53 mRNA = assay: Semi-quantitative RT-PCR of p53 mRNA in rat liver; assay type: in vivo; conditions: both experiments, 10 mg/kg orally, vs positive control (p < 0.05)
Mdm2 mRNA = assay: Semi-quantitative RT-PCR of Mdm2 mRNA in rat liver; assay type: in vivo; conditions: both experiments, 10 mg/kg orally, vs positive control (p < 0.05)
[1] = tested on: HepG2 cells, the human liver cancer cells; assay: Neutral red assay (cell viability), HepG2; assay type: cell-based; conditions: for IC50: Homo sapiens, read-out: IC50 (concentration that reduces cell viability by 50%)
Bcl-2 = assay: Western blot of Bcl-2 in rat liver; assay type: in vivo; conditions: both experiments, 10 mg/kg orally
HepG2 cells [2] = assay: DNA fragmentation (DNA gel electrophoresis); assay type: cell-based, human; conditions: 50 μM, 72 hrs
p21 (Waf1/Cip1/Sdi1) = assay: Western blot of p21 in rat liver; assay type: in vivo; conditions: both experiments, 10 mg/kg orally, vs positive control
HepG2 cells [3] = assay: Flow cytometry (cell cycle analysis, PI staining); assay type: cell-based, human
GST-P = assay: Immunohistochemical staining of GST-P foci in rat liver; assay type: in vivo
wild type p53 = assay: Immunoprecipitation and western blot of wild type p53 in rat liver nuclei; assay type: in vivo; conditions: 10 mg/kg orally
Bax = assay: Western blot of Bax in rat liver; assay type: in vivo; conditions: both experiments, 10 mg/kg orally
Mdm2 = assay: Western blot of Mdm2 in rat liver nuclei; assay type: in vivo; conditions: both experiments, 10 mg/kg orally, vs positive control (p < 0.05)
[4] = tested on: WRL 68, human normal liver embryo cells; assay: Neutral red assay (cell viability), WRL 68; assay type: cell-based; conditions: for IC50: Homo sapiens, WRL68, read-out: IC50 (concentration that reduces cell viability by 50%)
[5] = tested on: total p53 (wild type and mutant); assay: Western blot of total p53 in rat liver nuclei; assay type: in vivo; conditions: 10 mg/kg orally
[6] = tested on: liver damage in rats (DEN & CCl4); assay: Serum AST and ALT assays, DEN/CCl4 hepatocarcinogenesis; assay type: in vivo, rat; conditions: 10 mg/kg orally
[7] = tested on: gene expressions of HepG2 cells; assay: cDNA microarray analysis of gene expression (human toxicology and drug metabolism); assay type: cell-based; conditions: 16 μM, 48 hrs, vs control
[8] = tested on: hepatocarcinogenesis in rats (DEN & CCl4); assay: Relative liver weight, DEN/CCl4 hepatocarcinogenesis; assay type: in vivo, rat; conditions: both promotion and progression, 10 mg/kg orally
[9] = tested on: Clone 9, rat normal liver cells; assay: Neutral red assay (cell viability), Clone 9; assay type: cell-based; conditions: for IC50: Rattus norvegicus, read-out: IC50 (concentration that reduces cell viability by 50%)
[10] = tested on: hepatocarcinogenesis in rats (DEN & CCl4); assay: Gross examination of rat liver, DEN/CCl4 hepatocarcinogenesis; assay type: in vivo
[11] = progression experiment, p < 0.05

C=C1CC[C@@H]2[C@](C)(CO)[C@H](O)CC[C@@]2(C)[C@@H]1C/C=C1/C(=O)OC[C@H]1O [AND, andrographolide]
liver histology (H & E staining) (rat liver (DEN & CCl4); progression experiment): normal alignment of hepatocytes around central vein
liver histology (H & E staining) (rat liver (DEN & CCl4); promotion experiment): Liver structure was restored and hepatocyte arrangement was not as distorted as that of the positive control sections. Vacuolization was reduced and distinct cytoplasm was visible
PCNA expression (PCNA; both experiments): reduced in both experiments
PCNA expression (PCNA : β-actin ratio) (PCNA; progression experiment): The level of PCNA expression in DEN-CCl4 treated rat was found to be significantly higher than that in the negative control and AND-treated groups
PCNA expression (PCNA : β-actin ratio) (PCNA; promotion experiment): no significant difference
p53 mRNA expression (p53 : β-actin) (p53 mRNA): significant reduction
Mdm2 mRNA expression (Mdm2 : β-actin) (Mdm2 mRNA): significantly reduced
inhibitory effect on the proliferation of HepG2 ([1]; HepG2, human liver cancer cell line (Fig. 1)): significantly inhibitory effect
IC50 ([1]; HepG2, 24 hrs): 17.5 µM
IC50 ([1]; HepG2, 48 hrs): 16 µM
IC50 ([1]; HepG2, 72 hrs): 17 µM
IC50 for HepG2 cells compared with WRL 68 cells ([1]; all three time periods (24, 48 and 72 hrs), P < 0.05): significantly lower
Bcl-2 expression (Bcl-2): an increase in Bcl-2 expression
Bcl-2 protein expression (Bcl-2 : β-actin ratio) (Bcl-2; vs positive control (p < 0.05)): significantly lower
DNA fragmentation (HepG2 cells [2]): fragmentation at around 200 bp was detected
levels of p21 (p21 : β-actin ratio) (p21 (Waf1/Cip1/Sdi1)): higher than positive control groups, but no significant difference is observed
percentage of cells suspended in the sub G1 phase of the cell cycle (HepG2 cells [3]; 25 μM (Fig. 7, 48 hrs)): 13.1%
accumulation of cells in G0/G1 phase of the cell cycle (HepG2 cells [3]; 25 μM, 48 hrs (Fig. 7)): 67.1%
populations of cells suspended in S and G2/M phases (HepG2 cells [3]; 12.5 and 25 μM AND, 48 hrs, vs control (P < 0.05)): significantly decreased
accumulation of cells in the sub G1 and G0/G1 phases (HepG2 cells [3]; 12.5 and 25 μM AND, 48 hrs, vs control cells): significantly induced the accumulation of cells
cells suspended in sub G1 phase (HepG2 cells [3]; 20 and 25 μM AND, 24 hrs, vs 1% DMSO): more cells were suspended in sub Gi phase than those treated with DMSO only
population of cells suspended in G0/G1, S and G2/M phases (HepG2 cells [3]; 20 and 25 μM AND, 24 hrs, vs control cells (P > 0.05)): no significant changes
number and area of GST-P positive foci (GST-P; 10 mg/kg for 24 and 52 weeks, promotion and progression stages): a decrease in the number and area of GST-P positive foci
GST-P expression in liver section (GST-P; promotion experiment, 10 mg/kg orally): the expression of GST-P was present but the affected area was reduced
level of wild type p53 (wt. p53 : β-actin ratio) (wild type p53; progression experiment, vs positive control (p < 0.05)): a significant increase
level of wild type p53 (wt. p53 : β-actin ratio) (wild type p53; promotion experiment, vs positive control): no significant difference
Bax expression (Bax): a reduction of Bax expression
protein levels of Bax (Bax : β-actin ratio) (Bax; vs positive control (p < 0.05)): significantly increased
levels of Mdm2 protein (Mdm2 : β-actin ratio) (Mdm2): significant decrease
IC50 ([4]; WRL 68, 24 hrs): 57 µM
IC50 ([4]; WRL 68, 48 hrs): 30 µM
IC50 ([4]; WRL 68, 72 hrs): 35 µM
cytotoxicity ([4]; WRL 68, at a concentration of 18 μM (Fig. 2)): significant cytotoxicity was also detectable
total p53 protein level (discussion) ([5]; AND-treated group): the total p53 protein was increased
levels of total p53 protein expression ([5]; both experiments, vs negative control (no significant difference)): higher levels of total p53 protein expression
levels of total p53 (total p53 : β-actin ratio) ([5]; both experiments, vs positive control): no significant difference
serum ALT level [6, 11]: significant reduction
serum AST level [6, 11]: significant reduction
serum ALT level ([6]; promotion experiment, p < 0.01): significant reduction
serum AST level ([6]; promotion experiment, p < 0.01): significant reduction
expression of BCL2L2 (Bcl-w) gene [7]: down-regulated
expression of BCL2 gene [7]: down-regulated
expression of CCND1 gene [7]: down-regulated
expression of CHEK2 gene [7]: down-regulated
expression of CYP 2A6 gene [7]: down-regulated
expression of CYP 2D6 gene [7]: down-regulated
expression of IL1B gene [7]: under-expressed
expression of NFKB2 gene [7]: under-expressed
expression of NQO1 (NAD(P)H dehydrogenase quinone 1) gene [7]: up-regulated
expression of RB1 gene [7]: up-regulated
expression of SOD1 (superoxide dismutase 1) gene [7]: up-regulated
expression of TYMS (thymidylate synthetase) gene [7]: up-regulated
expression of XDH (xanthine dehydrogenase) gene [7]: up-regulated
number of genes down-regulated 3-folds or more [7]: forty-two
number of genes up-regulated 3-folds or more [7]: six
relative liver weight (liver weight/body weight) ([8]; vs negative control): No significant difference
relative liver weight (liver weight/body weight) ([8]; vs positive control): significant reduction
cytotoxicity ([9]; Clone 9, at a concentration of 18 μM (Fig. 3)): significant cytotoxicity was also detectable
IC50 ([9]; Clone 9, 24 hrs): 22 µM
IC50 ([9]; Clone 9, 48 hrs): 18 µM
IC50 ([9]; Clone 9, 72 hrs): 18 µM
gross appearance of liver ([10]; progression experiment, 10 mg/kg orally, 56th week): some nodules present on the surface of the AND-treated livers, but the structure of the livers generally resembled that of the normal livers
gross appearance of liver ([10]; promotion experiment, 10 mg/kg orally once daily, 28 weeks): had a smooth surface and generally resembled the negative control livers
